Data published in patent publication US9375005B2, “5-halogenopyrazole indanyl carboxamides” (BAYER CROPSCIENCE AG, priority 2012, dated 2016).

Tests used:
Pyrenophora teres = assay: In vivo preventive test on Pyrenophora teres (net blotch on barley); details: dose 500 ppm; barley plants sprayed 24 h before contamination; grading 14 days after contamination
Method: Barley plants (“Plaisant” variety), sown in starter cups on a 50/50 peat soil-pozzolana substrate and grown at 22° C., are treated at the 1-leaf stage (10 cm height) by spraying with the active ingredient prepared as described above. Plants, used as controls, are treated with the mixture of acetone/tween/DMSO/water not containing the active material. After 24 hours, the plants are contaminated by spraying the leaves with an aqueous suspension of Pyrenophora teres spores (12 000 spores per ml). The spores are collected from a 12-day-old culture. […] Grading (% of efficacy) is carried out 14 days after the contamination, in comparison with the control plants.

[1] = Measurement of log P values by HPLC on reversed phase columns (EEC directive 79/831 Annex V.A8); format: physicochemical
Puccinia recondita = assay: In vivo preventive test on Puccinia recondita (brown rust on wheat); details: wheat plants sprayed 24 h before contamination, grading 12 days after contamination
Method: Plants, used as controls, are treated with the mixture of acetone/tween/DMSO/water not containing the active material. After 24 hours, the plants are contaminated by spraying the leaves with an aqueous suspension of Puccinia recondita spores (100 000 spores per ml). […] Grading (% of efficacy) is carried out 12 days after the contamination, in comparison with the control plants.

Uromyces appendiculatus = assay: In vivo preventive test on Uromyces appendiculatus (bean rust); details: bean plants sprayed 24 h before contamination, grading 11 days after contamination
Method: Bean plants (“Saxa” variety), sown in starter cups on a 50/50 peat soil-pozzolana substrate and grown at 24° C., are treated at the 2-leaf stage (9 cm height) by spraying with the active ingredient prepared as described above. Plants, used as controls, are treated with the mixture of acetone/tween/DMSO/water not containing the active material. After 24 hours, the plants are contaminated by spraying the leaves with an aqueous suspension of Uromyces appendiculatus spores (150 000 spores per ml). […] Grading (% of efficacy) is carried out 11 days after the contamination, in comparison with the control plants.

| Compound | Eff. % (Pyrenophora teres) [%] | logP ([1]; method marked [a]) | Eff. % (Puccinia recondita; dose 500 ppm) [%] | Eff. % (Uromyces appendiculatus; dose 500 ppm) [%] | logP ([1]; method marked [b]) | Eff. % (Puccinia recondita; dose 100 ppm) [%] | Eff. % (Uromyces appendiculatus; dose 100 ppm) [%] |
| --- | --- | --- | --- | --- | --- | --- | --- |
| CCON=C1CC(C)c2c(NC(=O)c3c(C(F)F)nn(C)c3Cl)cccc21 (stereo not drawn) [Example 82] | 75 | 3.42[a] | 88 | 99 | – | – | – |
| Cn1nc(C(F)F)c(C(=O)Nc2cccc3c2CC2(CCCC2)C3)c1Cl [Example 15] | 71 | 4.44[a] | 100 | 100 | – | – | – |
| CC1CC(C)(C)c2c(Br)ccc(NC(=O)c3c(C(F)F)nn(C)c3Cl)c21 (stereo not drawn) [Example 36] | 75 | 4.77[a]; | – | 77 | 4.68[b] | – | – |
| CCCON=C1CC(C)c2c(NC(=O)c3c(C(F)F)nn(C)c3Cl)cccc21 (stereo not drawn) [Example 84] | 75 | 3.92[a] | 81 | – | – | – | – |
| Cn1nc(C(F)F)c(C(=O)Nc2cccc3c2CC(C2CCCC2)C3)c1Cl (stereo not drawn) [Example 57] | 97 | 5.03[a] | 94 | 100 | – | – | – |
| CC1CC(C)(C)c2c(Br)ccc(NC(=S)c3c(C(F)F)nn(C)c3F)c21 (stereo not drawn) [Example 55] | 75 | 4.64[a]; | 94 | 70 | 4.49[b] | – | – |
| Cc1ccc(NC(=O)c2c(C(F)F)nn(C)c2Cl)c2c1C(C)(C)CC2C (stereo not drawn) [Example 18] | – | 4.27[a]; | 78 | 76 | 4.2[b] | – | – |
| CC1CC2(CCCCC2)c2cccc(NC(=O)c3c(C(F)F)nn(C)c3Cl)c21 (stereo not drawn) [Example 110] | – | 5.01[a] | – | – | – | 83 | 99 |
| CCC1(C)CCc2c(NC(=O)c3c(C(F)F)nn(C)c3Cl)cccc21 (single isomer, unassigned) [Example 52] | 80 | 4.31[a] | 98 | 100 | – | – | – |
| CC1Cc2c(NC(=O)c3c(C(F)F)nn(C)c3Br)cccc2C1(C)C (stereo not drawn) [Example 13] | – | 4.16[a] | 75 | 79 | – | – | – |
| CC1c2c(NC(=O)c3c(C(F)F)nn(C)c3Br)cccc2C(C)(C)C1C (stereo not drawn) [Example 65] | – | 4.23[a] | 94 | 95 | – | – | – |
| CC1CC(C)(C)c2c(I)ccc(NC(=O)c3c(C(F)F)nn(C)c3Cl)c21 (stereo not drawn) [Example 20] | 97 | 4.91[a]; | 98 | 99 | 4.89[b] | – | – |
| Cn1nc(C(F)F)c(C(=O)Nc2cccc3c2CC2CCCCC32)c1Cl (stereo not drawn) [Example 54] | – | 4.54[a] | 94 | 100 | – | – | – |
| CC(C)CC1CC(C)c2c(NC(=O)c3c(C(F)F)nn(C)c3Cl)cccc21 (stereo not drawn) [Example 79] | 92 | 4.98[a] | 94 | 100 | – | – | – |
| CC1CC2(CCCCC2)c2cccc(NC(=S)c3c(C(F)F)nn(C)c3Cl)c21 (stereo not drawn) [Example 108] | – | 5.01[a] | – | – | – | 90 | 100 |
| CC1c2c(NC(=O)c3c(C(F)F)nn(C)c3Cl)cccc2C(C)(C)C1C (stereo not drawn) [Example 85] | 92 | 4.2[a] | 98 | 99 | – | – | – |
| CON=C1CC(C)c2c(NC(=O)c3c(C(F)F)nn(C)c3Cl)cccc21 (stereo not drawn) [Example 88] | – | 2.98[a] | 81 | 100 | – | – | – |
